Results: PubChem BioAssay (NCI)
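GI50: concentration for 50% inhibition of growth. TGI is the concentration that stops growth completely.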

Experiments:
Assay in all cases: DTP human tumour cell line panel, 384-well format
[1] = system: 786-0 renal
[2] = system: A498 renal
[3] = system: A549 NSCLC
[4] = system: ACHN renal
[5] = system: BT-549 breast
[6] = system: CAKI-1 renal
[7] = system: CCRF-CEM leukemia
[8] = system: COLO 205 colon
[9] = system: DU-145 prostate
[10] = system: EKVX NSCLC
[11] = system: HCC-2998 colon
[12] = system: HCT-116 colon
[13] = system: HCT-15 colon
[14] = system: HL-60(TB) leukemia
[15] = system: HOP-62 NSCLC
[16] = system: HOP-92 NSCLC
[17] = system: HS 578T breast
[18] = system: HT29 colon
[19] = system: IGROV1 ovarian
[20] = system: K-562 leukemia
[21] = system: KM12 colon
[22] = system: LOX IMVI melanoma
[23] = system: M14 melanoma
[24] = system: MALME-3M melanoma
[25] = system: MCF7 breast
[26] = system: MDA-MB-231 breast
[27] = system: MDA-MB-435 melanoma
[28] = system: MOLT-4 leukemia
[29] = system: NCI-H226 lung
[30] = system: NCI-H23 lung
[31] = system: NCI-H322M lung
[32] = system: NCI-H460 NSCLC
[33] = system: NCI-H522 lung
[34] = system: NCI/ADR-RES ovarian
[35] = system: OVCAR-3 ovarian
[36] = system: OVCAR-4 ovarian
[37] = system: OVCAR-5 ovarian
[38] = system: OVCAR-8 ovarian
[39] = system: PC-3 prostate
[40] = system: RPMI-8226 leukemia
[41] = system: RXF 393 renal
[42] = system: SF-268 CNS
[43] = system: SF-295 CNS
[44] = system: SF-539 CNS
[45] = system: SK-MEL-28 melanoma
[46] = system: SK-MEL-5 melanoma
[47] = system: SK-OV-3 ovarian
[48] = system: SN12C renal
[49] = system: SNB-19 CNS
[50] = system: SNB-75 CNS
[51] = system: SW-620 colon
[52] = system: T-47D breast
[53] = system: TK-10 renal
[54] = system: U251 glioblastoma
[55] = system: UACC-257 melanoma
[56] = system: UACC-62 melanoma
[57] = system: UO-31 renal
[58] = system: MDA-MB-468 breast
[59] = system: SR leukemia

CNC(=O)c1ccccc1Nc1cc(Nc2ccc(N3CCOCC3)cc2OC)ncc1C(F)(F)F
GI50 [1]: 2.75 µM
TGI [1]: 19.8 µM
GI50 [2]: 11 µM
TGI [2]: 28.3 µM
GI50 [3]: 0.371 µM
TGI [3]: 13 µM
GI50 [4]: 5.62 µM
TGI [4]: 69.7 µM
GI50 [5]: 2.82 µM
TGI [5]: 9.86 µM
GI50 [6]: 6.33 µM
TGI [6]: 21 µM
GI50 [7]: 0.722 µM
TGI [7]: 11.5 µM
GI50 [8]: 0.309 µM
TGI [8]: 1.85 µM
GI50 [9]: 1.97 µM
TGI [9]: 24.3 µM
GI50 [10]: 0.653 µM
TGI [10]: 11.8 µM
GI50 [11]: 0.654 µM
TGI [11]: 15.8 µM
GI50 [12]: 0.632 µM
TGI [12]: 13.2 µM
GI50 [13]: 2.88 µM
TGI [13]: 34.2 µM
GI50 [14]: 0.375 µM
TGI [14]: 1.43 µM
GI50 [15]: 2.62 µM
TGI [15]: 51.3 µM
GI50 [16]: 1.02 µM
TGI [16]: 10.2 µM
GI50 [17]: 2.78 µM
TGI [17]: 10.1 µM
GI50 [18]: 0.416 µM
TGI [18]: 14.1 µM
GI50 [19]: 0.229 µM
TGI [19]: 12.4 µM
GI50 [20]: 2.69 µM
TGI [20]: > 100 µM
GI50 [21]: 0.523 µM
TGI [21]: 8.06 µM
GI50 [22]: 1.23 µM
TGI [22]: 12.1 µM
GI50 [23]: 0.233 µM
TGI [23]: 11.1 µM
GI50 [24]: 0.303 µM
TGI [24]: 15.1 µM
GI50 [25]: 0.447 µM
TGI [25]: 18.5 µM
GI50 [26]: 2.76 µM
TGI [26]: 49.2 µM
GI50 [27]: 0.752 µM
TGI [27]: > 100 µM
GI50 [28]: 0.969 µM
TGI [28]: 10.5 µM
GI50 [29]: 0.876 µM
TGI [29]: > 100 µM
GI50 [30]: 0.277 µM
TGI [30]: 9.47 µM
GI50 [31]: 5.28 µM
TGI [31]: 46.2 µM
GI50 [32]: 0.316 µM
TGI [32]: 10.6 µM
GI50 [33]: 0.877 µM
TGI [33]: 20.4 µM
GI50 [34]: 1.52 µM
TGI [34]: 4.64 µM
GI50 [35]: 4.45 µM
TGI [35]: 37.9 µM
GI50 [36]: 16.1 µM
TGI [36]: > 100 µM
GI50 [37]: 0.66 µM
TGI [37]: 27.5 µM
GI50 [38]: 4.08 µM
TGI [38]: 19.8 µM
GI50 [39]: 15.9 µM
TGI [39]: > 100 µM
GI50 [40]: 0.35 µM
TGI [40]: 3.3 µM
GI50 [41]: 2.82 µM
TGI [41]: 14 µM
GI50 [42]: 0.143 µM
TGI [42]: 1.67 µM
GI50 [43]: 2.12 µM
TGI [43]: 38.7 µM
GI50 [44]: 1.7 µM
TGI [44]: 16.8 µM
GI50 [45]: 2 µM
TGI [45]: 16.7 µM
GI50 [46]: 0.767 µM
TGI [46]: 18 µM
GI50 [47]: 5.44 µM
TGI [47]: 41.9 µM
GI50 [48]: 3.31 µM
TGI [48]: 27.1 µM
GI50 [49]: 10.9 µM
TGI [49]: > 100 µM
GI50 [50]: 4.25 µM
TGI [50]: 21.4 µM
GI50 [51]: 0.658 µM
TGI [51]: 12.6 µM
GI50 [52]: 9.99 µM
TGI [52]: 23.3 µM
GI50 [53]: 7.3 µM
TGI [53]: 32 µM
GI50 [54]: 4.4 µM
TGI [54]: 48 µM
GI50 [55]: 0.397 µM
TGI [55]: 23.3 µM
GI50 [56]: 0.354 µM
TGI [56]: 14.4 µM
GI50 [57]: 2.9 µM
TGI [57]: 16.9 µM

COc1cccc2[nH]c3c4c(c5c(c3c12)C(=O)N(CN1CCN(C)CC1)C5=O)CCC4
GI50 [2]: 9.22 µM
TGI [2]: 21.5 µM
GI50 [3]: 12.5 µM
TGI [3]: 26.3 µM
GI50 [4]: 14.9 µM
TGI [4]: 30.5 µM
GI50 [5]: 15.8 µM
TGI [5]: 29.6 µM
GI50 [6]: 10.9 µM
TGI [6]: 23.2 µM
GI50 [8]: 15.4 µM
TGI [8]: 48.5 µM
GI50 [9]: 14.4 µM
TGI [9]: 27.9 µM
GI50 [10]: 15.4 µM
TGI [10]: 29.1 µM
GI50 [11]: 21 µM
TGI [11]: 66.1 µM
GI50 [12]: 11.6 µM
TGI [12]: 24.4 µM
GI50 [13]: 11.5 µM
TGI [13]: 24.8 µM
GI50 [14]: 10.7 µM
TGI [14]: 22.7 µM
GI50 [15]: 11.5 µM
TGI [15]: 24 µM
GI50 [16]: 17.3 µM
TGI [16]: 31.3 µM
GI50 [17]: 15 µM
TGI [17]: 29 µM
GI50 [18]: 13.2 µM
TGI [18]: 27.1 µM
GI50 [19]: 12.5 µM
TGI [19]: 29.6 µM
GI50 [21]: 15.8 µM
TGI [21]: 34.2 µM
GI50 [22]: 13.7 µM
TGI [22]: 26.9 µM
GI50 [23]: 14.3 µM
TGI [23]: 28.7 µM
GI50 [24]: 13.5 µM
TGI [24]: 26.5 µM
GI50 [25]: 12.5 µM
TGI [25]: 26.9 µM
GI50 [26]: 16.1 µM
TGI [26]: 29.9 µM
GI50 [27]: 13.7 µM
TGI [27]: 29.1 µM
GI50 [58]: 8.27 µM
TGI [58]: 21.1 µM
GI50 [28]: 6.13 µM
TGI [28]: 19.1 µM
GI50 [29]: 15.9 µM
TGI [29]: 33.2 µM
GI50 [30]: 14 µM
TGI [30]: 27.3 µM
GI50 [31]: 14.4 µM
TGI [31]: 27.8 µM
GI50 [32]: 6.97 µM
TGI [32]: 19.8 µM
GI50 [33]: 7.53 µM
TGI [33]: 21.5 µM
GI50 [34]: 8.24 µM
TGI [34]: 21 µM
GI50 [35]: 13.2 µM
TGI [35]: 26.7 µM
GI50 [36]: 7.56 µM
TGI [36]: 19.5 µM
GI50 [37]: 20.7 µM
TGI [37]: 48.7 µM
GI50 [38]: 9.47 µM
TGI [38]: 23.1 µM
GI50 [39]: 11.5 µM
TGI [39]: 23.8 µM
GI50 [40]: 13.3 µM
TGI [40]: 26.2 µM
GI50 [41]: 14.2 µM
TGI [41]: 27.3 µM
GI50 [42]: 15.5 µM
TGI [42]: 29.7 µM
GI50 [43]: 13.9 µM
TGI [43]: 27.2 µM
GI50 [44]: 9.75 µM
TGI [44]: 21.8 µM
GI50 [45]: 14.5 µM
TGI [45]: 28.3 µM
GI50 [46]: 3.44 µM
TGI [46]: 14.3 µM
GI50 [47]: 11.2 µM
TGI [47]: 23.6 µM
GI50 [48]: 12.5 µM
TGI [48]: 40.6 µM
GI50 [49]: 12.3 µM
TGI [49]: 24.8 µM
GI50 [50]: 13 µM
TGI [50]: 25.9 µM
GI50 [59]: 1.83 µM
TGI [59]: 4.8 µM
GI50 [52]: 12.3 µM
TGI [52]: 32 µM
GI50 [53]: 10.7 µM
TGI [53]: 22.7 µM
GI50 [54]: 12.1 µM
TGI [54]: 24.6 µM
GI50 [55]: 17.8 µM
TGI [55]: 33 µM
GI50 [56]: 12.5 µM
TGI [56]: 25.3 µM
